Structures are written as SMILES. Bridge positions count the residues as written; N and C are the ends. Square brackets hold non-standard residues; d marks the D form. Peptide text beside a SMILES is read from it. Phe(4-COOH) = N[C@@H](Cc1ccc(C(=O)O)cc1)C(=O)O; R8 = C=CCCCCCC[C@@](C)(N)C(=O)O; S5 = C=CCCC[C@](C)(N)C(=O)O; Nle = CCCC[C@H](N)C(=O)O

Test [1] addresses T1, flag-tagged HIF1α (AA 786-826) / His6-tagged p300 (AA 323-423) complex (Homo sapiens, UniProt Q09472).
T1 construct: His6-tagged p300 (AA 323-423); made in house; host or cells: E. coli (pETDuet vector)
Put plainly: HIF1α p300 displacement assay (TR FRET, +CHAPS). Particulars: read-out: IC50 (nM) (HIF1α_p300 Displacement + CHAPS). Format: binding. In outline: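 In this TR-FRET displacement format, peptides compete HIF1α C-terminal transactivation domain off p300-CH. They were preincubated 1 h at room temperature with 300 nM complex in HEPES pH 7.4/NaCl buffer with 7.5 mM CHAPS and 1 mM DTT. Anti-His-D2 (4 nM) and anti-Flag-K (0.5 μM) followed for 2 h, and a one-site fit of the fluorescence ratio gave IC50.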
(Time-resolved FRET reads energy transfer from a long-lived donor to a nearby acceptor.)

Test [2] has as its system HRE-bla ME-180 cells. Put plainly: Reporter gene assay (HRE-bla ME-180 HIF reporter, GeneBLAzer). Format: cell-based, human. The note with it: for EC50: 24 hour normoxia. An outline of the steps:
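A FRET β-lactamase readout of HIF transcription was used. After compound treatment in 0.3% DMSO/media under normoxic conditions, 20 μl of 6× LiveBLAzer-FRET B/G (CCF4-AM) substrate was added. Plates sat 3 hr at room temperature in the dark and were read at 409 Ex/460Em and 409Ex/530Em on a Synergy 2. Inhibition was compared against DMSO vehicle controls, with chetomin as positive control.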

Test [3] concerns HRE-bla ME-180 cells. Put plainly: Cell proliferation assay (viability, MTT, 1% FBS). The format is cell-based, human. In outline: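 Viable cell number was measured with the CellTiter 96 (MTT) kit after compounds were applied for a 16 h normoxic (21% O2) pretreatment, followed by further normoxic or hypoxic (1% O2) culture. Cells: 2×10^4 ME-180 per well, Opti-MEM + 1% FBS, 0.5% DMSO vehicle.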

As to `CCCC[C@H](NC(=O)[C@H](CC(C)C)NC(=O)[C@@H](NC(=O)[C@H](CCC(=O)O)NC(=O)[C@H](CCC(=O)O)NC(=O)[C@H](CC(=O)O)NC(=O)[C@@H](NC(=O)[C@H](CC(N)=O)NC(=O)[C@@H](NC(=O)[C@]1(C)CCCC=CCCCCCC[C@@](C)(NC(=O)[C@H](CCC(=O)O)NC(=O)CNC(=O)[C@H](CCC(N)=O)NC(=O)[C@H](CC(C)C)NC(=O)[C@H](CC(C)C)NC(C)=O)C(=O)N[C@@H](CC(C)C)C(=O)N[C@@H](CC(C)C)C(=O)N[C@@H](CCCNC(=N)N)C(=O)N[C@@H](C)C(=O)N[C@@H](CC(C)C)C(=O)N[C@@H](CC(=O)O)C(=O)N1)C(C)C)[C@@H](C)CC)C(C)C)C(=O)N[C@@]1(C)CCCC=CCCC[C@@](C)(C(=O)N[C@@H](CCCC)C(=O)N[C@@H](C)C(=O)N[C@@H](CC(C)C)C(N)=O)NC(=O)[C@H]([C@@H](C)CC)NC(=O)[C@H](C(C)C)NC(=O)[C@H](CC(C)C)NC1=O` [SP-372] (Ac-LLQGE[R8]LLRALD[S5]VNIDEEVL[Nle][S5]LVI[S5][Nle]AL-NH2; staple 6-13, 23-27), the IC50 in test [1] lay within 400 to 700 nM. In the test on HRE-bla ME-180 cells [2], the “18 h Avg % max inhibition at top conc (HIF Rptr-24 hrs normoxia) (μM)” value (“18 h Avg % max inhibition at top conc” below) is “++++ (≥50: ++++)” and the EC50 is over 30 µM. For the same compound, the “Viability 1% FBS AVG (MTT V3-24 hr Normoxia) (μM)” value (shortened to “Viability 1% FBS AVG”) with HRE-bla ME-180 cells [3] is listed as “++++ (≥30: ++++)”.
With `CCCC[C@@H]1NC(=O)[C@H](CC(C)C)NC(=O)[C@H]([C@@H](C)O)NC(=O)[C@@](C)(NC(=O)[C@H](CCC(=O)O)NC(=O)[C@H](CC(=O)O)NC(=O)[C@@H](NC(=O)[C@H](Cc2ccccc2)NC(C)=O)[C@@H](C)CC)CCCC=CCCCC2(CCCC=CCCC[C@](C)(C(=O)N[C@@H](CCCC)C(=O)N[C@@H](C)C(=O)N[C@@H](CC(C)C)C(N)=O)NC(=O)[C@H]([C@@H](C)CC)NC(=O)[C@H](C(C)C)NC(=O)[C@H](CC(C)C)NC2=O)NC1=O` (stereo partly drawn) [SP-207], in test [1], the IC50 is at most 200 nM. In addition, in the test on HRE-bla ME-180 cells [2], the “18 h Avg % max inhibition at top conc” value is reported as “+ (<10: +)” and the EC50 is over 30 µM. Also, the “Viability 1% FBS AVG” value in the test with HRE-bla ME-180 cells [3] was “++++ (≥30: ++++)”.
Regarding `CCCC[C@H](NC(=O)[C@H](CCC(=O)O)NC(=O)[C@]1(C)CCCC=CCCCCCC[C@@](C)(NC(=O)[C@H](CCC(=O)O)NC(=O)[C@H](C)NC(=O)[C@@H](NC(=O)[C@H](Cc2ccccc2)NC(C)=O)[C@@H](C)CC)C(=O)N[C@@H](C(C)C)C(=O)N[C@@H](CC(C)C)C(=O)N[C@@H](CCCC)C(=O)N[C@@H](CO)C(=O)N[C@@H](CC(C)C)C(=O)N[C@@H](C(C)C)C(=O)N1)C(=O)N[C@@H](C)C(=O)N[C@@H](CC(C)C)C(=O)N[C@@H](CC(=O)O)C(=O)N[C@@H](C)C(=O)N[C@H](C(N)=O)[C@@H](C)CC` [SP-192] (Ac-FIAE[R8]VL[Nle]SLV[S5]E[Nle]ALDAI-NH2; staple 5-12), the IC50 in test [1] lay within 200 to 400 nM. In the test with HRE-bla ME-180 cells [2], the “18 h Avg % max inhibition at top conc” value was “++ (≤10 but <25: ++)” and the EC50 was over 30 µM. The “Viability 1% FBS AVG” value with HRE-bla ME-180 cells [3] was “++++ (≥30: ++++)”.
The matching figures for `CCCC[C@H](NC(=O)[C@H](Cc1ccccc1)NC(=O)[C@@H](NC(=O)[C@H](CCC(=O)O)NC(=O)[C@H](CCC(=O)O)NC(=O)[C@H](CC(=O)O)NC(=O)[C@@H](NC(C)=O)[C@@H](C)CC)C(C)C)C(=O)N[C@@]1(C)CCCC=CCCC[C@@](C)(C(=O)N[C@@H](CCCC)C(=O)N[C@@H](C)C(=O)N[C@@H](CC(C)C)C(=O)N[C@@H](CC(C)C)C(N)=O)NC(=O)[C@H]([C@@H](C)CC)NC(=O)[C@H](C(C)C)NC(=O)[C@H](CC(C)C)NC1=O` [SP-243] (Ac-IDEEVF[Nle][S5]LVI[S5][Nle]ALL-NH2; staple 8-12): 400 to 700 nM, “++++ (≥50: ++++)”, 15 to 30 µM and “++++ (≥30: ++++)”.
The matching figures for `CCCC[C@H](NC(=O)[C@H](CCC(=O)O)NC(=O)[C@@H](NC(=O)[C@@H](NC(=O)[C@H](CC(C)C)NC(=O)[C@]1(C)CCCC=CCCC[C@](C)(NC(=O)[C@H](CCC(=O)O)NC(=O)[C@H](CC(=O)O)NC(=O)[C@@H](NC(=O)[C@H](CC(N)=O)NC(=O)[C@@H](NC(=O)[C@]2(C)CCCC=CCCCCCC[C@@](C)(NC(=O)[C@H](CCC(=O)O)NC(=O)CNC(=O)[C@H](CCC(N)=O)NC(=O)[C@H](CC(C)C)NC(=O)[C@H](CC(C)C)NC(C)=O)C(=O)N[C@@H](CC(C)C)C(=O)N[C@@H](CC(C)C)C(=O)N[C@@H](CCCNC(=N)N)C(=O)N[C@@H](C)C(=O)N[C@@H](CC(C)C)C(=O)N[C@@H](CC(=O)O)C(=O)N2)C(C)C)[C@@H](C)CC)C(=O)N[C@@H](C(C)C)C(=O)N[C@@H](CC(C)C)C(=O)N[C@@H](CCCC)C(=O)N1)C(C)C)[C@@H](C)CC)C(=O)NCC(N)=O` [SP-328] (Ac-LLQGE[R8]LLRALD[S5]VNIDE[S5]VL[Nle][S5]LVIE[Nle]G-NH2; staple 6-13, 19-23): at most 200 nM, “+ (<10: +)”, over 30 µM and “++++ (≥30: ++++)”.
The matching figures for `CC[C@H](C)[C@H](NC(=O)[C@H](Cc1ccccc1)NC(C)=O)C(=O)N[C@@H](CC(=O)O)C(=O)N[C@@H](Cc1ccc(C(=O)O)cc1)C(=O)N[C@@H](CCC(=O)O)C(=O)N[C@H](C(=O)N[C@@H](CC(C)C)C(=O)N[C@@H](CCSC)C(=O)N[C@@]1(C)CCCC=CCCC[C@@](C)(C(=O)N[C@@H](CCSC)C(=O)N[C@@H](C)C(=O)N[C@@H](Cc2ccccc2)C(N)=O)NC(=O)[C@H]([C@@H](C)CC)NC(=O)[C@H](C(C)C)NC(=O)[C@H](CC(C)C)NC1=O)C(C)C` [SP-228] (Ac-FID[Phe(4-COOH)]EVLM[S5]LVI[S5]MAF-NH2; staple 9-13): 200 to 400 nM, “+++ (≤25 but <50: +++)”, over 30 µM and “++++ (≥30: ++++)”.
For `CCCC[C@H](NC(=O)[C@H](CCC(=O)O)NC(=O)[C@]1(C)CCCC=CCCCCCC[C@@](C)(NC(=O)[C@H](CCC(=O)O)NC(=O)[C@H](CC(=O)O)NC(=O)[C@@H](NC(=O)[C@H](CC(N)=O)NC(=O)[C@@H](NC(=O)[C@H](CCC(N)=O)NC(=O)[C@H](CC(=O)O)NC(=O)[C@H](CC(C)C)NC(=O)[C@H](C)NC(=O)[C@H](CCCNC(=N)N)NC(=O)[C@H](CC(C)C)NC(=O)[C@H](CC(C)C)NC(=O)[C@H](CCC(=O)O)NC(=O)[C@H](CCC(=O)O)NC(=O)CNC(=O)[C@H](CCC(N)=O)NC(=O)[C@H](CC(C)C)NC(=O)[C@H](CC(C)C)NC(C)=O)C(C)C)[C@@H](C)CC)C(=O)N[C@@H](C(C)C)C(=O)N[C@@H](CC(C)C)C(=O)N[C@@H](CCCC)C(=O)N[C@@H](CO)C(=O)N[C@@H](CC(C)C)C(=O)N[C@@H](C(C)C)C(=O)N1)C(N)=O` [SP-336] (Ac-LLQGEELLRALDQVNIDE[R8]VL[Nle]SLV[S5]E[Nle]-NH2; staple 19-26), the IC50 in test [1] is over 700 nM. In the test on HRE-bla ME-180 cells [2], the “18 h Avg % max inhibition at top conc” value is on record as “+ (<10: +)” and the EC50 was over 30 µM. Moreover, the “Viability 1% FBS AVG” value with HRE-bla ME-180 cells [3] is reported as “++++ (≥30: ++++)”.
In the case of `CCCC[C@H](NC(=O)[C@H](CC(C)C)NC(=O)[C@@H](NC(=O)[C@H](CCC(=O)O)NC(=O)[C@H](CCC(=O)O)NC(=O)[C@H](CC(=O)O)NC(=O)[C@@H](NC(=O)[C@H](CC(N)=O)NC(=O)[C@@H](NC(=O)[C@H](CCC(N)=O)NC(=O)[C@H](CC(=O)O)NC(=O)[C@]1(C)CCCC=CCCC[C@](C)(NC(=O)[C@H](CCC(=O)O)NC(=O)[C@H](CCC(=O)O)NC(=O)CNC(=O)[C@H](CCC(N)=O)NC(=O)[C@H](CC(C)C)NC(=O)[C@H](CC(C)C)NC(C)=O)C(=O)N[C@@H](CC(C)C)C(=O)N[C@@H](CCCNC(=N)N)C(=O)N[C@@H](C)C(=O)N1)C(C)C)[C@@H](C)CC)C(C)C)C(=O)N[C@@]1(C)CCCC=CCCC[C@@](C)(C(=O)N[C@@H](CCCC)C(=O)NCC(N)=O)NC(=O)[C@H]([C@@H](C)CC)NC(=O)[C@H](C(C)C)NC(=O)[C@H](CC(C)C)NC1=O` [SP-339] (Ac-LLQGEE[S5]LRA[S5]DQVNIDEEVL[Nle][S5]LVI[S5][Nle]G-NH2; staple 7-11, 23-27), the IC50 in test [1] lay in the range of 200 to 400 nM. In the test with HRE-bla ME-180 cells [2], the “18 h Avg % max inhibition at top conc” value is reported as “+ (<10: +)” and the EC50 was over 30 µM. Further, the “Viability 1% FBS AVG” value in the test on HRE-bla ME-180 cells [3] is reported as “++++ (≥30: ++++)”.
The corresponding values for `CCCC[C@H](NC(=O)[C@H](Cc1ccccc1)NC(=O)[C@@H](NC(=O)[C@H](CCC(=O)O)NC(=O)[C@H](CCC(=O)O)NC(=O)[C@H](CC(=O)O)NC(=O)[C@@H](NC(=O)[C@H](Cc1ccccc1)NC(C)=O)[C@@H](C)CC)C(C)C)C(=O)N[C@@]1(C)CCCC=CCCC[C@@](C)(C(=O)N[C@@H](CCCC)C(=O)N[C@@H](C)C(=O)N[C@@H](CC(C)C)C(=O)N[C@@H](CC(=O)O)C(=O)N[C@@H](CCCNC(=N)N)C(=O)N[C@H](C(N)=O)[C@@H](C)CC)NC(=O)[C@H]([C@@H](C)CC)NC(=O)[C@H](C(C)C)NC(=O)[C@H](CC(C)C)NC1=O` [SP-265] (Ac-FIDEEVF[Nle][S5]LVI[S5][Nle]ALDRI-NH2; staple 9-13) are 200 to 400 nM, “++++ (≥50: ++++)”, 5 to 15 µM and “++++ (≥30: ++++)”.

Usually IC50 stands for the point on the concentration scale where inhibition reaches its midpoint. By EC50 is commonly meant the concentration at which the effect is half-maximal.
